Measured values taken from PMC9794833, “Ligand recognition and activation of neuromedin U receptor 2” (Nature Communications, 2022).
Values joined by “and” are separate entries in the source; they are usually repeats but may differ in a detail not shown here. Identical values can stand only once. Where a SMILES comes first, the peptide text is derived from it. [ ]: non-standard residue; d: D form. The star is where a group is joined. αMeW = C[C@](N)(Cc1c[nH]c2ccccc12)C(=O)O; Acetyl(2-thienyl) = O=C(Cc1cccs1)*

Tests used:
[1] = target: T1, NMU2 (Homo sapiens, UniProt Q9GZQ4); assay: TRUPATH Gαi1βγ biosensor assay, WT NMU2; type: cell-based; conditions: WT; for CPN 267–induced G protein activation of NMU2: single replicates
T1 construct: HA signal peptide (N); expressed in transfected cells; host or cells: HEK 293F
T1 sequence (Q9GZQ4 whole entry): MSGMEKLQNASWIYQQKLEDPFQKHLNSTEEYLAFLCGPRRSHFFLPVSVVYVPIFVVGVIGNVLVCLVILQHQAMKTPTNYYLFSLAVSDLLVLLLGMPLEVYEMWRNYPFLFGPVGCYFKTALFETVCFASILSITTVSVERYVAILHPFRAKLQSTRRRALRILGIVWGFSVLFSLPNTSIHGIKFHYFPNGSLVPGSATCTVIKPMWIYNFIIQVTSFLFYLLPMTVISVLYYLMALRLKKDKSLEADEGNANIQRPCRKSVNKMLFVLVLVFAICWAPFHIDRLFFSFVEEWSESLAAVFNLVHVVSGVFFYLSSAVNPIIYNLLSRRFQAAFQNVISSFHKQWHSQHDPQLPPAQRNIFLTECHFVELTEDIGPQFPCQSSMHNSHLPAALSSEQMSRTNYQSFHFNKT
Method: (§1) The plasmids of Gαi1, Gβ3, and Gγ9 used for the TRUPATH assay were purchased from Addgene (TRUPATH Kit, #1000000163). NMU2 constructs of WT and mutants were constructed into a PTT5 vector (Invitrogen) with an N-terminal HA signal peptide followed by a Flag tag. HEK 293F cells were transiently transfected with WT or mutants of NMU2, Gαi1, Gβ3, and Gγ9 at an […] ratio of 4:1:1:1 with a total of 3500 ng plasmid DNA using a transfection reagent (PEI MAX 2000, Polysciences) and cultivated at 37 °C with 5 % CO2. Cells were collected after 48-h transfection. The expression level of the receptor was measured by incubating 10 μl cells with 15 μl TBS buffer supplemented with 4% bovine serum albumin, 20% (v/v) viability staining solution7-AAD (Invitrogen, Cat#00-6993-50), and ANTI-FLAG M2-FITC antibody (Sigma, F4049; 1:100 diluted by TBS) at 4 °C for 20 min. After incubation, 175 μl TBS buffer was added, and the fluorescence signal on the cell surface was detected by an FCM (flow cytometry) reader (Millipore). The cells were diluted with 1× HBSS (Hank’s balanced salt solution) balanced buffer supplemented with 25 mM HEPES, pH 7.4, and seeded onto the 96-well opaque cell culture plates (Beyotime) at a density of 18,000 cells per well by 60 μl. Freshly prepared 50 μM coelenterazine 400a (Nanolight Technologies) was added into the well by 10 μl. After a 5 min equilibration time in the darkness, plates were then read in a Synerg^TM H1 microplate reader (BioTek) with excitation at 395 nm and emission at 410 and 515 nm by serially three times. Then, 30 μl of 3.3× agonists were added into the wells with a gradient final concentration from 10^−4–10^−13 M. Plates were read immediately again by serially five times. Data were processed and analyzed following the method in the literature by using GraphPad Prism 8.0.

[2] = target: T2, NMU2 H43E (Homo sapiens, UniProt Q9GZQ4, H43E); assay: TRUPATH assay, NMU2 mutant H43E; type: cell-based; conditions: for increase of Emax: H43E vs WT, TRUPATH; for CPN 267–induced G protein activation of NMU2: single replicates
T2 construct: HA signal peptide (N); expressed in transfected cells; host or cells: HEK 293F
T2 sequence (Q9GZQ4 whole entry H43E): as the sequence (Q9GZQ4 whole entry) above, with H43E counted along it
Method: as §1

[3] = target: T3, NMU2 A302H (Homo sapiens, UniProt Q9GZQ4, A302H); assay: TRUPATH assay, NMU2 mutant A302H; type: cell-based; conditions: Log [CPN 267] M -13
T3 construct: HA signal peptide (N); expressed in transfected cells; host or cells: HEK 293F
T3 sequence (Q9GZQ4 whole entry A302H): as the sequence (Q9GZQ4 whole entry) above, with A302H counted along it
Method: as §1

[4] = target: T4, NMU2 N306Q (Homo sapiens, UniProt Q9GZQ4, N306Q); assay: TRUPATH assay, NMU2 mutant N306Q; type: cell-based
T4 construct: HA signal peptide (N); expressed in transfected cells; host or cells: HEK 293F
T4 sequence (Q9GZQ4 whole entry N306Q): as the sequence (Q9GZQ4 whole entry) above, with N306Q counted along it
Method: as §1

[5] = tested on: NMU1; design: method as in PMID 24999562, PMID 25815150, PMID 28548497; conditions: cited from earlier work

EC50 ratio EC50(mutant)/EC50(WT) [1]: 1
CPN 267 dose-response point on NMU2 (TRUPATH, raw signal) ([1]; Log [CPN 267] M -13): 0
CPN 267–induced G protein activation of NMU2 ([1]; Log [CPN 267] M -13): 0
EC50 ratio EC50(mutant)/EC50(WT) ([2]; H43E): 2
increase of Emax [2]: twofold
increase of Emax ([2]; listed as CPN267): 2 fold
CPN 267 dose-response point on NMU2 (TRUPATH, raw signal) ([2]; H43E, Log [CPN 267] M -4): -0.04819
CPN 267–induced G protein activation of NMU2 ([2]; H43E, Log [CPN 267] M -4): -0.04819
CPN 267–induced G protein activation of NMU2 ([2]; H43E, Log [CPN 267] M -5): -0.05461 and -0.04902
CPN 267–induced G protein activation of NMU2 ([2]; H43E, Log [CPN 267] M -6): -0.04442 and -0.04638 and -0.03015
CPN 267–induced G protein activation of NMU2 ([2]; H43E, Log [CPN 267] M -7): -0.01102 and -0.01529 and -0.01284
CPN 267–induced G protein activation of NMU2 ([2]; H43E, Log [CPN 267] M -8): 0.004556 and -0.024 and -0.02479
CPN 267–induced G protein activation of NMU2 ([2]; H43E, Log [CPN 267] M -9): 0.01023 and -0.003075 and 0.003569
CPN 267–induced G protein activation of NMU2 ([2]; H43E, Log [CPN 267] M -10): 0.0005609 and -0.01099 and -0.03027
CPN 267–induced G protein activation of NMU2 ([2]; H43E, Log [CPN 267] M -11): 0.0192 and 0.004402 and 0
CPN 267–induced G protein activation of NMU2 ([2]; H43E, Log [CPN 267] M -12): 0.009217 and 0
CPN 267 dose-response point on NMU2 (TRUPATH, raw signal) ([2]; H43E, Log [CPN 267] M -13): 0
CPN 267–induced G protein activation of NMU2 ([2]; H43E, Log [CPN 267] M -13): 0
CPN 267 dose-response point on NMU2 (TRUPATH, raw signal) [3]: 0
EC50 ratio EC50(mutant)/EC50(WT) [4]: 0.12
CPN 267–induced G protein activation of NMU2 ([4]; Log [CPN 267] M -4, single replicates): -0.07238 and -0.04006 and -0.03184
CPN 267–induced G protein activation of NMU2 ([4]; Log [CPN 267] M -6, single replicates): -0.04834 and -0.04745
CPN 267 dose-response point on NMU2 (TRUPATH, raw signal) ([4]; Log [CPN 267] M -13): 0
enhanced potency compared to the WT receptor ([4]; TRUPATH): about 8 fold
Structure (SMILES): C[C@@](Cc1c[nH]c2ccccc12)(NC(=O)[C@H](Cc1c[nH]c2ccccc12)NC(=O)Cc1cccs1)C(=O)N[C@@H](CCCNC(=N)N)C(=O)N1CCC[C@H]1C(=O)N[C@@H](CCCNC(=N)N)C(=O)N[C@@H](CC(N)=O)C(N)=O [CPN 267] ({Acetyl(2-thienyl)}-W[αMeW]RPRN-NH2; N-terminus assumed)
CPN 267–induced G protein activation of NMU2 ([1]; Log [CPN 267] M -5): -0.03587 and 0.007188 and -0.01399 and -0.02335
CPN 267–induced G protein activation of NMU2 ([1]; Log [CPN 267] M -6): -0.02292 and -0.01831 and -0.0188 and -0.02168 and -0.03547 and -0.01761 and -0.003911 and -0.0252 and -0.02032
CPN 267–induced G protein activation of NMU2 ([1]; Log [CPN 267] M -7): -0.006001 and -0.01343 and -0.0256 and -0.004694 and 0.01387 and -0.02539 and 0.01253 and -0.01403 and -0.001793
CPN 267–induced G protein activation of NMU2 ([1]; Log [CPN 267] M -8): 0.003495 and -0.002501 and 0.007246 and 0.0002105 and -0.01007 and 0.01037 and -0.008456 and 0.001798
CPN 267–induced G protein activation of NMU2 ([1]; Log [CPN 267] M -9): -0.002278 and 0.02355 and -0.003166 and -0.00428 and 0.01286 and -0.01712 and 0.00907 and -0.02718 and 0.02569
CPN 267–induced G protein activation of NMU2 ([1]; Log [CPN 267] M -10): 0.01327 and -0.00722 and 0.003132 and -0.01489 and -0.004805 and 0.01086 and 0.01655 and -0.01176
CPN 267–induced G protein activation of NMU2 ([1]; Log [CPN 267] M -11): 0.01288 and -0.01868 and -0.005647 and 0.02201 and -0.02258 and -0.03283 and 0 (3×)
CPN 267–induced G protein activation of NMU2 ([1]; Log [CPN 267] M -12): 0.001564 and -0.001695 and 0.03559 and -0.01351 and 0.02492 and 0
CPN 267–induced G protein activation of NMU2 ([4]; Log [CPN 267] M -5, single replicates): -0.01962 and -0.06076 and -0.0468 and -0.06887
selectivity over NMU2 ([5]; NMU1 over NMU2): 1000 fold
EC50 ([5]; agonistic activity for NMU1): 0.25 nM
